Measured values taken from patent US6624182B1, “Hydroxyphenylvinylthiazoles” (Ciba Specialty Chemicals Corporation, priority 1999, dated 2003).

Legend:
[1] = tested on: E. coli; test: Determination of the minimum inhibitory concentration (MIC value) in microtitre plates; format: cell-based, Escherichia coli NCTC 8196; conditions: Escherichia coli; optical density at 620 nm, 48 hours at 37° C., MIC = ≦20% growth; tested at 100; 10 and 1 ppm (approximate values); (2), (3), (4) at 120; 60; 30; 15; 7.5; 3.75 ppm
Summary of the method: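 E. coli NCTC 8196 grown overnight in CASO bouillon, adjusted to 1−5×10^6 KBE/ml, diluted 1:100 and added to DMSO-dissolved compounds in 1:2 dilution series. Incubated 48 h at 37° C; growth read as OD 620 nm. MIC is the lowest concentration giving ≤20% growth versus growth control; duplicates.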

[2] = tested on: C. albicans; test: as above; format: cell-based, Candida albicans ATCC 10231; conditions: Candida albicans; optical density at 620 nm, 48 hours at 37° C., MIC = ≦20% growth; tested at 100; 10 and 1 ppm (approximate values); (2), (3), (4) at 120; 60; 30; 15; 7.5; 3.75 ppm
Summary of the method: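 Candida albicans ATCC 10231 grown overnight in CASO broth, adjusted to 1–5×10^6 CFU/ml then diluted 1:100, was exposed to 1:2 serial dilutions of compound (DMSO) for 48 h at 37 °C. Growth was read as OD620; MIC was the concentration giving ≤20% growth versus control, tested in duplicate.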

MIC [1] [µg/mL]	MIC [2] [µg/mL]	Structure (SMILES)
> 100	> 100	CC(C)(C)c1csc(/C=C/c2ccccc2O)n1 [Compound of formula (3)]
> 100	30	Oc1ccc(/C=C/c2nc(-c3ccc(F)cc3)cs2)cc1 [Compound of formula (2)]
> 100	30	Oc1ccc(/C=C/c2nc(-c3ccccc3)cs2)cc1 [Compound of formula (4)]
